According to patent US20240018140A1, “MODIFIED IMIDAZOPYRIDINES AS GLUCOSYLCERAMIDE SYNTHASE INHIBITORS” (Merck Sharp & Dohme LLC, priority 2020, published 2024):
pEC50: −log10 of the molar value.

The molecules below were run against glucosylceramide synthase (GCS) (Homo sapiens (Human), UniProt Q16739) (assay: UDP-Glo glucosylceramide synthase biochemical assay). Conditions: endogenous GCS in Golgi preparations from human A375 malignant melanoma skin cells; C6 ceramide and UDP-glucose substrates; 20 h incubation; UDP detected by luminescence.
Sequence of glucosylceramide synthase (GCS) (Q16739 whole entry): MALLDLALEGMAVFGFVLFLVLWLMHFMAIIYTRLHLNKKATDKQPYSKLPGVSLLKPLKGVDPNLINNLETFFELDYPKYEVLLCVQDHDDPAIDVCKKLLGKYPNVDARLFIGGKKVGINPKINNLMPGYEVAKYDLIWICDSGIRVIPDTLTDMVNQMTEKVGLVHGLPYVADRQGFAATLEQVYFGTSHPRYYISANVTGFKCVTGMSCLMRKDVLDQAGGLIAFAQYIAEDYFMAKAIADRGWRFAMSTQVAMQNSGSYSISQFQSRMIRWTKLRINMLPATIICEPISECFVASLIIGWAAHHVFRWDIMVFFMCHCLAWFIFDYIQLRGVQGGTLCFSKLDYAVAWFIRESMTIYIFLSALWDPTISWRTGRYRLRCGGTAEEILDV
Method in brief: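 Endogenous GCS in Golgi preparations from A375 melanoma cells (1.5 μg total protein) preincubated 30 min at room temperature with compound. UDP-glucose and ceramide then added for 20 h at room temperature; UDP measured by luciferase luminescence. Normalized to DMSO (0%) and reference inhibitor (100%); EC50 and % Emax from 4PL fit.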
With NCc1cn2cccc(-c3ccccc3OCC(F)(F)F)c2n1 [Compound 80, (8-(2-(2,2,2-trifluoroethoxy)phenyl)imidazo[1,2-a]pyridin-2-yl)methanamine] the pEC50 was 6.48. CC(C)(C)NCc1cn2cccc(-c3ccccc3OCC(F)(F)F)c2n1 [Compound 79, 2-methyl-N-((8-(2-(2,2,2-trifluoroethoxy)phenyl)imidazo[1,2-a]pyridin-2-yl)methyl)propan-2-amine] showed a pEC50 of 6.85. O=C(N[C@H]1COC[C@@H]1F)c1cn2cc(Cl)cc(-c3ccccc3OCC(F)(F)F)c2n1 [Compound 46, 6-chloro-N-((3S,4R)-4-fluorotetrahydrofuran-3-yl)-8-(2-(2,2,2-trifluoroethoxy)phenyl)imidazo[1,2-a]pyridine-2-carboxamide] gave a pEC50 of 8.40. Molecule CC1(NC(=O)c2cn3cc(Cl)cc(-c4ccccc4OCC(F)(F)F)c3n2)CCCOC1 (racemic) [Compound 35, (R and S)-6-chloro-N-(3-methyltetrahydro-2H-pyran-3-yl)-8-(2-(2,2,2-trifluoroethoxy)phenyl)imidazo[1,2-a]pyridine-2-carboxamide] has a pEC50 of 8.48. O=C(NC12CCC(CO)(CC1)CC2)c1cn2cccc(-c3ccccc3OCC(F)(F)F)c2n1 [Compound 18, N-(4-(hydroxymethyl)bicyclo[2.2.2]octan-1-yl)-8-(2-(2,2,2-trifluoroethoxy)phenyl)imidazo[1,2-a]pyridine-2-carboxamide] showed a pEC50 of 8.64. Work on CC1(CO)CN=C(c2cn3cc(Cl)cc(-c4ccccc4OCC(F)(F)F)c3n2)O1 (stereo not shown) [Compound 71, (2-(6-chloro-8-(2-(2,2,2-trifluoroethoxy)phenyl)imidazo[1,2-a]pyridin-2-yl)-5-methyl-4,5-dihydrooxazol-5-yl)methanol] yielded a pEC50 of 7.80. O=C(Nc1cccnc1)c1cn2cc(C(F)(F)F)cc(-c3ccccc3OCC(F)(F)F)c2n1 [Compound 15, N-(pyridin-3-yl)-8-(2-(2,2,2-trifluoroethoxy)phenyl)-6-(trifluoromethyl)imidazo[1,2-a]pyridine-2-carboxamide] showed a pEC50 of 10.54. OCC1COC(c2cn3cc(Cl)cc(-c4ccccc4OCC(F)(F)F)c3n2)=N1 (stereo not shown) [Compound 72, [2-[6-chloro-8-[2-(2,2,2-trifluoroethoxy)phenyl]imidazo[1,2-a]pyridin-2-yl]-4,5-dihydrooxazol-4-yl]methanol] gave a pEC50 of 8.10. N#Cc1cc(-c2ccccc2OCC(F)(F)F)c2nc(C(=O)N[C@H]3CC[C@H](O)CC3)cn2c1 [Compound 39, 6-cyano-N-(trans-4-hydroxycyclohexyl)-8-(2-(2,2,2-trifluoroethoxy)phenyl)imidazo[1,2-a]pyridine-2-carboxamide] showed a pEC50 of 7.85. CC1(NC(=O)c2cn3cc(Cl)cc(-c4ccccc4OCC(F)(F)F)c3n2)CCOC1 (racemic) [Compound 14, (R and S)-6-chloro-N-(3-methyltetrahydrofuran-3-yl)-8-(2-(2,2,2-trifluoroethoxy)phenyl)imidazo[1,2-a]pyridine-2-carboxamide] gave a pEC50 of 9.01.
